The OligoGym collection
HELM strings list units from the 5' end as sugar, base in round brackets, then linkage (d deoxyribose, r ribose, m 2'-O-methyl, p phosphodiester). Strings are as the collection lists them; they lack the last nucleoside at the 3' end of the tested compound. [moe] = 2'-O-(2-methoxyethyl) (MOE); [sp] = phosphorothioate linkage; [m5C] = 5-methylcytosine

Target: SMN2
Assay: mouse, dose not given
Conditions: ASO

“RNA1{[moe]([m5C])[sp].[moe](A)[sp].[moe]([m5C])[sp].[moe](T)[sp].[moe](T)[sp].[moe](T)[sp].[moe]([m5C])[sp].[moe](A)[sp].[moe](T)[sp].[moe](A)[sp].[moe](A)[sp].[moe](T)[sp].[moe](G)p.[moe]([m5C])[sp].[moe](T)[sp].[moe](G)[sp].[moe](G)}$$$$ (last 3' nucleoside missing)” and “RNA1{[moe]([m5C])[sp].[moe](T)[sp].[moe](T)p.[moe](T)[sp].[moe]([m5C])[sp].[moe](A)p.[moe](T)[sp].[moe](A)[sp].[moe](A)p.[moe](T)[sp].[moe](G)[sp].[moe]([m5C])p.[moe](T)[sp].[moe](G)[sp].[moe](G)}$$$$ (last 3' nucleoside missing)” are the same in 3 h FOB score: 0 score 0-7 for the first, 0 score 0-7 for the second.

Compared with “RNA1{[moe]([m5C])[sp].[moe](T)[sp].[moe](T)p.[moe](T)[sp].[moe]([m5C])[sp].[moe](A)[sp].[moe](T)[sp].[moe](A)[sp].[moe](A)[sp].[moe](T)[sp].[moe](G)[sp].[moe]([m5C])[sp].[moe](T)p.[moe](G)[sp].[moe](G)}$$$$ (last 3' nucleoside missing)”, “RNA1{[moe]([m5C])[sp].[moe](A)[sp].[moe]([m5C])[sp].[moe](T)[sp].[moe](T)[sp].[moe](T)[sp].[moe]([m5C])[sp].[moe](A)[sp].[moe](T)[sp].[moe](A)[sp].[moe](A)[sp].[moe](T)[sp].[moe](G)[sp].[moe]([m5C])[sp].[moe](T)[sp].[moe](G)[sp].[moe](G)}$$$$ (last 3' nucleoside missing)” is higher in 3 h FOB score: 0.5 score 0-7 for the first, 2.5 score 0-7 for the second.

“RNA1{[moe]([m5C])[sp].[moe](A)[sp].[moe]([m5C])[sp].[moe](T)[sp].[moe](T)[sp].[moe](T)[sp].[moe]([m5C])[sp].[moe](A)p.[moe](T)p.[moe](A)p.[moe](A)p.[moe](T)[sp].[moe](G)[sp].[moe]([m5C])[sp].[moe](T)[sp].[moe](G)[sp].[moe](G)}$$$$ (last 3' nucleoside missing)” and “RNA1{[moe]([m5C])[sp].[moe](A)p.[moe]([m5C])[sp].[moe](T)[sp].[moe](T)[sp].[moe](T)[sp].[moe]([m5C])[sp].[moe](A)[sp].[moe](T)[sp].[moe](A)p.[moe](A)[sp].[moe](T)[sp].[moe](G)[sp].[moe]([m5C])[sp].[moe](T)[sp].[moe](G)[sp].[moe](G)}$$$$ (last 3' nucleoside missing)” are the same in 3 h FOB score: 0 score 0-7 for the first, 0 score 0-7 for the second.

First: RNA1{[moe](A)[sp].[moe](T)[sp].[moe](T)[sp].[moe]([m5C])[sp].[moe](A)[sp].[moe]([m5C])[sp].[moe](T)[sp].[moe](T)[sp].[moe](T)[sp].[moe]([m5C])[sp].[moe](A)[sp].[moe](T)[sp].[moe](A)[sp].[moe](A)[sp].[moe](T)p.[moe](G)[sp].[moe]([m5C])p.[moe](T)[sp].[moe](G)}$$$$ (last 3' nucleoside missing)
Second: RNA1{[moe]([m5C])[sp].[moe](A)[sp].[moe]([m5C])[sp].[moe](T)[sp].[moe](T)[sp].[moe](T)[sp].[moe]([m5C])p.[moe](A)p.[moe](T)p.[moe](A)p.[moe](A)p.[moe](T)[sp].[moe](G)[sp].[moe]([m5C])[sp].[moe](T)[sp].[moe](G)[sp].[moe](G)}$$$$ (last 3' nucleoside missing)
The 3 h FOB score of the first is higher: 2 score 0-7 for the first, 0 score 0-7 for the second.

Compared with “RNA1{[moe]([m5C])[sp].[moe](A)[sp].[moe]([m5C])[sp].[moe](T)[sp].[moe](T)[sp].[moe](T)[sp].[moe]([m5C])[sp].[moe](A)[sp].[moe](T)[sp].[moe](A)p.[moe](A)p.[moe](T)[sp].[moe](G)[sp].[moe]([m5C])[sp].[moe](T)[sp].[moe](G)[sp].[moe](G)}$$$$ (last 3' nucleoside missing)”, “RNA1{[moe](T)[sp].[moe]([m5C])p.[moe](A)[sp].[moe]([m5C])[sp].[moe](T)[sp].[moe](T)[sp].[moe](T)[sp].[moe]([m5C])[sp].[moe](A)p.[moe](T)[sp].[moe](A)[sp].[moe](A)[sp].[moe](T)[sp].[moe](G)[sp].[moe]([m5C])[sp].[moe](T)[sp].[moe](G)}$$$$ (last 3' nucleoside missing)” is higher in 3 h FOB score: 1 score 0-7 for the first, 4 score 0-7 for the second.

“RNA1{[moe]([m5C])[sp].[moe](T)[sp].[moe](T)p.[moe](T)[sp].[moe]([m5C])[sp].[moe](A)p.[moe](T)[sp].[moe](A)[sp].[moe](A)p.[moe](T)[sp].[moe](G)p.[moe]([m5C])[sp].[moe](T)p.[moe](G)[sp].[moe](G)}$$$$ (last 3' nucleoside missing)” and “RNA1{[moe]([m5C])[sp].[moe](A)[sp].[moe]([m5C])[sp].[moe](T)[sp].[moe](T)[sp].[moe](T)p.[moe]([m5C])p.[moe](A)p.[moe](T)p.[moe](A)p.[moe](A)p.[moe](T)p.[moe](G)[sp].[moe]([m5C])[sp].[moe](T)[sp].[moe](G)[sp].[moe](G)}$$$$ (last 3' nucleoside missing)” are the same in 3 h FOB score: 0 score 0-7 for the first, 0 score 0-7 for the second.

“RNA1{[moe](A)[sp].[moe](T)[sp].[moe](T)[sp].[moe]([m5C])[sp].[moe](A)[sp].[moe]([m5C])[sp].[moe](T)[sp].[moe](T)[sp].[moe](T)[sp].[moe]([m5C])p.[moe](A)[sp].[moe](T)[sp].[moe](A)[sp].[moe](A)[sp].[moe](T)[sp].[moe](G)[sp].[moe]([m5C])[sp].[moe](T)[sp].[moe](G)}$$$$ (last 3' nucleoside missing)” and “RNA1{[moe](T)[sp].[moe]([m5C])[sp].[moe](A)[sp].[moe]([m5C])[sp].[moe](T)[sp].[moe](T)[sp].[moe](T)[sp].[moe]([m5C])p.[moe](A)p.[moe](T)[sp].[moe](A)[sp].[moe](A)[sp].[moe](T)[sp].[moe](G)[sp].[moe]([m5C])[sp].[moe](T)[sp].[moe](G)}$$$$ (last 3' nucleoside missing)” are the same in 3 h FOB score: 4 score 0-7 for the first, 4 score 0-7 for the second.

First: RNA1{[moe]([m5C])[sp].[moe](A)p.[moe]([m5C])[sp].[moe](T)[sp].[moe](T)[sp].[moe](T)p.[moe]([m5C])[sp].[moe](A)[sp].[moe](T)[sp].[moe](A)[sp].[moe](A)[sp].[moe](T)[sp].[moe](G)[sp].[moe]([m5C])[sp].[moe](T)[sp].[moe](G)[sp].[moe](G)}$$$$ (last 3' nucleoside missing)
Second: RNA1{[moe](T)[sp].[moe]([m5C])p.[moe](A)[sp].[moe]([m5C])[sp].[moe](T)[sp].[moe](T)[sp].[moe](T)[sp].[moe]([m5C])[sp].[moe](A)[sp].[moe](T)[sp].[moe](A)[sp].[moe](A)[sp].[moe](T)[sp].[moe](G)[sp].[moe]([m5C])p.[moe](T)[sp].[moe](G)}$$$$ (last 3' nucleoside missing)
The 3 h FOB score of the first is lower: 0 score 0-7 for the first, 3.5 score 0-7 for the second.

Going from “RNA1{[moe](A)[sp].[moe](T)p.[moe](T)p.[moe]([m5C])[sp].[moe](A)[sp].[moe]([m5C])[sp].[moe](T)[sp].[moe](T)[sp].[moe](T)[sp].[moe]([m5C])[sp].[moe](A)[sp].[moe](T)[sp].[moe](A)[sp].[moe](A)[sp].[moe](T)[sp].[moe](G)[sp].[moe]([m5C])[sp].[moe](T)[sp].[moe](G)}$$$$ (last 3' nucleoside missing)” to “RNA1{[moe]([m5C])[sp].[moe](T)[sp].[moe](T)[sp].[moe](T)[sp].[moe]([m5C])[sp].[moe](A)[sp].[moe](T)p.[moe](A)p.[moe](A)p.[moe](T)[sp].[moe](G)[sp].[moe]([m5C])[sp].[moe](T)[sp].[moe](G)[sp].[moe](G)}$$$$ (last 3' nucleoside missing)”, the 3 h FOB score falls from 3.25 score 0-7 to 2 score 0-7.

First: RNA1{[moe](G)[sp].[moe](A)[sp].[moe](T)[sp].[moe](T)[sp].[moe]([m5C])[sp].[moe](A)[sp].[moe]([m5C])[sp].[moe](T)[sp].[moe](T)[sp].[moe](T)[sp].[moe]([m5C])[sp].[moe](A)[sp].[moe](T)[sp].[moe](A)[sp].[moe](A)[sp].[moe](T)[sp].[moe](G)[sp].[moe]([m5C])}$$$$ (last 3' nucleoside missing)
Second: RNA1{[moe]([m5C])[sp].[moe](A)[sp].[moe]([m5C])[sp].[moe](T)[sp].[moe](T)[sp].[moe](T)[sp].[moe]([m5C])[sp].[moe](A)[sp].[moe](T)[sp].[moe](A)[sp].[moe](A)p.[moe](T)p.[moe](G)p.[moe]([m5C])p.[moe](T)[sp].[moe](G)[sp].[moe](G)}$$$$ (last 3' nucleoside missing)
The 3 h FOB score of the first is higher: 2 score 0-7 for the first, 0 score 0-7 for the second.

Going from “RNA1{[moe]([m5C])p.[moe](T)[sp].[moe]([m5C])[sp].[moe](A)[sp].[moe]([m5C])[sp].[moe](T)[sp].[moe](T)[sp].[moe](T)[sp].[moe]([m5C])[sp].[moe](A)[sp].[moe](T)[sp].[moe](A)[sp].[moe](A)[sp].[moe](T)[sp].[moe](G)[sp].[moe]([m5C])[sp].[moe](T)[sp].[moe](G)}$$$$ (last 3' nucleoside missing)” to “RNA1{[moe](A)[sp].[moe]([m5C])[sp].[moe](T)p.[moe](T)p.[moe](T)p.[moe]([m5C])p.[moe](A)[sp].[moe](T)[sp].[moe](A)[sp].[moe](A)[sp].[moe](T)[sp].[moe](G)[sp].[moe]([m5C])[sp].[moe](T)[sp].[moe](G)[sp].[moe](G)}$$$$ (last 3' nucleoside missing)”, the 3 h FOB score falls from 3.5 score 0-7 to 0 score 0-7.

Going from “RNA1{[moe]([m5C])[sp].[moe](A)[sp].[moe]([m5C])[sp].[moe](T)p.[moe](T)p.[moe](T)[sp].[moe]([m5C])[sp].[moe](A)[sp].[moe](T)[sp].[moe](A)[sp].[moe](A)[sp].[moe](T)[sp].[moe](G)[sp].[moe]([m5C])[sp].[moe](T)[sp].[moe](G)[sp].[moe](G)}$$$$ (last 3' nucleoside missing)” to “RNA1{[moe](T)[sp].[moe](T)p.[moe]([m5C])[sp].[moe](A)p.[moe]([m5C])[sp].[moe](T)[sp].[moe](T)[sp].[moe](T)[sp].[moe]([m5C])[sp].[moe](A)[sp].[moe](T)[sp].[moe](A)[sp].[moe](A)[sp].[moe](T)[sp].[moe](G)[sp].[moe]([m5C])[sp].[moe](T)[sp].[moe](G)}$$$$ (last 3' nucleoside missing)”, the 3 h FOB score rises from 0 score 0-7 to 2.25 score 0-7.
